Assay results reported in PMC6868852, “Molecular cloning and characterization of a grapevine (Vitis vinifera L.) serotonin N-acetyltransferase (VvSNAT2) gene involved in plant defense” (BMC Genomics, 2019).

System: VvSNAT2
Assay: HPLC product quantification; Lineweaver-Burk
Type: biochemical, Vitis vinifera
Settings: acetyl-CoA 0.5 mM; 100 mM potassium phosphate pH 8.8; 30 min at 45 °C (Fig. 3 legend; Methods print below 30 °C)

In the case of `NCCc1c[nH]c2ccc(O)cc12` [serotonin], the Km is reported as 392 µM.
